Reference: publication PMC9072656, “Inhibition of Human Sulfotransferases by Phthalate Monoesters” (Frontiers in Endocrinology, 2022)

Assays:
Type in all cases: biochemical
[1] = target: T1, SULT1B1 (Homo sapiens, UniProt O43704); experiment: inhibition of 4-nitrophenol sulfation, UPLC-UV
T1 construct: recombinant, purchased from BD Gentest
Excerpt: inhibition of 4-nitrophenol sulfation, UPLC-UV on SULT1B1

[2] = target: T2, SULT1A1 (Homo sapiens, UniProt P50225); experiment: inhibition of 4-nitrophenol sulfation, UPLC-UV
T2 construct: recombinant, purchased from BD Gentest
Excerpt: inhibition of 4-nitrophenol sulfation, UPLC-UV on SULT1A1

[3] = target: T3, SULT1E1 (Homo sapiens, UniProt P49888); experiment: inhibition of 4-nitrophenol sulfation, UPLC-UV
T3 construct: recombinant, purchased from BD Gentest
T3 sequence (P49888 1-294): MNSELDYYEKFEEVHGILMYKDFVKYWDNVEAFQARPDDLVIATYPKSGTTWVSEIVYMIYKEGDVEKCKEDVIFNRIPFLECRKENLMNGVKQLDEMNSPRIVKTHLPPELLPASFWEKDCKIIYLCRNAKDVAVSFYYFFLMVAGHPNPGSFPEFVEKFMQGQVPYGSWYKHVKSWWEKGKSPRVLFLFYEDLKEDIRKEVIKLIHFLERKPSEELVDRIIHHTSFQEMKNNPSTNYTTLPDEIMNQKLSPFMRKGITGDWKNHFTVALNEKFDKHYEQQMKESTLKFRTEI
Excerpt: inhibition of 4-nitrophenol sulfation, UPLC-UV on SULT1E1

[4] = target: T3, SULT1E1; experiment: inhibition of 4-nitrophenol sulfation, UPLC-UV, Lineweaver-Burk slope replot
[5] = target: T1, SULT1B1; experiment: as above

T1 sequence (O43704 whole entry): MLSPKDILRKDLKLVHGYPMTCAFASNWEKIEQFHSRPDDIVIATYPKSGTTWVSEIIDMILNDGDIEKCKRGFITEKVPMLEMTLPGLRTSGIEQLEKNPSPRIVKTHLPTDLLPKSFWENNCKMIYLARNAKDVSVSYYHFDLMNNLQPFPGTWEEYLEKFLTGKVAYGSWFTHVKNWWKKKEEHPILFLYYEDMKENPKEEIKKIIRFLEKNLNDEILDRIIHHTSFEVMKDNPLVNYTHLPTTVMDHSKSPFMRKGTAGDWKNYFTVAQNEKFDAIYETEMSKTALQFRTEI
T2 sequence (P50225 whole entry): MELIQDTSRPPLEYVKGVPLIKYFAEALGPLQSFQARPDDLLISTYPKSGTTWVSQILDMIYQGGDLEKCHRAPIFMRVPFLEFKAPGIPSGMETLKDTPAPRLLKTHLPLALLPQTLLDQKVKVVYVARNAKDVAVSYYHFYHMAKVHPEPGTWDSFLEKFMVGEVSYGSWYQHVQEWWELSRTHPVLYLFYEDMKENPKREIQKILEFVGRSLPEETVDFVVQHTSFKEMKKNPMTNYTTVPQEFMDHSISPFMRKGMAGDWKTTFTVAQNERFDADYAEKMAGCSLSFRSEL

SMILES | IC50 [1] [µM] | IC50 [2] [µM] | IC50 [3] [µM] | Ki [4] [µM] | Ki [5] [µM]
CCCCOC(=O)c1ccccc1C(=O)O [MBP] | 8.49 |  |  |  | 
O=C(O)c1ccccc1C(=O)OCc1ccccc1 [MBZP] |  | 0.25 |  |  | 
O=C(O)c1ccccc1C(=O)OC1CCCCC1 [MCHP] | 12.8 |  |  |  | 
CCCCC(CC)COC(=O)c1ccccc1C(=O)O (centres unmarked) [MEHP] | 13.9 | 2.32 | 1.73 |  | 
CCCCCCOC(=O)c1ccccc1C(=O)O [MHP] | 11.6 | 17.1 | 4.54 |  | 
CCCCCCCCOC(=O)c1ccccc1C(=O)O [MOP] | 2.73 | 5.61 | 1.77 | 5.54 | 2.23
